From the supplement of paper PMC10307832

Experiments:
Assay in all cases: relative viability (nuclei count vs DMSO), 5 days (fraction); higher = more cells survive
[1] = compound: C1/C(=C\C2=CC=CS2)/C(=O)/C(=C/C3=CC=CS3)/C1 + NC(=O)Nc1cc(-c2cccc(F)c2)sc1C(=O)N[C@H]1CCCNC1 [AZD7762] (partner 0.2 µM)
Procedure, shortened: (§1)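 Values are medians from duplicate plates. Each reflects relative viability, defined as the nuclei count of treated wells over that of vehicle wells. Lung cancer cell lines in 1536-well plates were pin-tool dosed one day after seeding with one drug alone or with a fixed anchor-drug dose plus five library-drug doses (not always all listed) in √10 steps, then fixed, stained and imaged at 4× after 5 days.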

[2] = compound: C1/C(=C\C2=CC=CS2)/C(=O)/C(=C/C3=CC=CS3)/C1 + Nc1nc2[nH]cc(CCc3ccc(C(=O)N[C@@H](CCC(=O)O)C(=O)O)cc3)c2c(=O)[nH]1 [Pemetrexed] (partner 0.2 µM)
Procedure, shortened: as §1

[3] = compound: C[C@]12O[C@H](C[C@]1(O)CO)n1c3ccccc3c3c4c(c5c6ccccc6n2c5c31)CNC4=O [Lestaurtinib] + CC(=O)Nc1cccc(-n2c(=O)n(C3CC3)c(=O)c3c(Nc4ccc(I)cc4F)n(C)c(=O)c(C)c32)c1 [Trametinib] (partner 0.02 µM)
Procedure, shortened: as §1

[4] = compound: C1/C(=C\C2=CC=CS2)/C(=O)/C(=C/C3=CC=CS3)/C1 + Nc1ncn([C@H]2C[C@H](O)[C@@H](CO)O2)c(=O)n1 [Decitabine] (partner 2 µM)
Procedure, shortened: as §1

Cell Line	relative viability ([1]; first compound 0.2 µM)	relative viability ([1]; first compound 0.6325 µM)	relative viability ([1]; first compound 2 µM)	relative viability ([1]; first compound 6.325 µM)	relative viability ([1]; first compound 20 µM)	relative viability ([2]; first compound 0.2 µM)	relative viability ([2]; first compound 0.6325 µM)	relative viability ([2]; first compound 2 µM)	relative viability ([2]; first compound 6.325 µM)	relative viability ([2]; first compound 20 µM)	relative viability ([3]; first compound 0.005 µM)	relative viability ([3]; first compound 0.01581 µM)	relative viability ([3]; first compound 0.05 µM)	relative viability ([3]; first compound 0.1581 µM)	relative viability ([3]; first compound 0.5 µM)	relative viability ([4]; first compound 0.2 µM)	relative viability ([4]; first compound 0.6325 µM)	relative viability ([4]; first compound 2 µM)	relative viability ([4]; first compound 6.325 µM)	relative viability ([4]; first compound 20 µM)
EMC-BAC-2	1.19	1.1	1.09	0.91	1.12	0.449	0.467	0.443	0.391	0.447	0.926	0.905	0.973	0.748	0.415	1	0.968	1.03	0.909	0.924
EPLC-272H	0.179	0.276	0.182	0.221	0.183	0.351	0.468	0.334	0.301	0.373	0.271	0.23	0.218	0.224	0.286	0.379	0.349	0.446	0.282	0.339
H3255	0.916	0.878	0.945	0.842	0.914	0.573	0.594	0.61	0.528	0.602	0.587	0.787	0.496	0.546	0.386	0.81	0.538	0.527	0.55	0.494
HARA	0.431	0.271	0.319	0.361	0.336	0.249	0.254	0.228	0.222	0.241	0.639	0.832	0.685	1.09	0.268	0.755	0.571	0.558	0.529	0.595
HCC-15	1.14	1.33	1.41	1.06	1.13	0.221	0.203	0.218	0.214	0.217	0.405	0.409	0.306	0.364	0.189	0.677	0.688	0.661	0.619	0.609
HCC-44	1.03	1.03	0.857	0.84	1.03	0.64	0.688	0.613	0.55	0.673	1.04	1.04	1.04	1.16	0.593	0.946	1	0.881	0.844	0.973
HCC-78	0.649	0.729	0.76	0.68	0.658	0.923	0.817	0.862	0.921	0.862	0.832	0.807	0.578	0.522	0.284	0.653	0.763	0.755	0.714	0.686
HCC-366	0.297	0.347	0.215	0.241	0.145	0.168	0.169	0.156	0.116	0.172	0.365	0.489	0.399	0.342	0.149	0.296	0.329	0.341	0.369	0.336
